The results in this text go back to ChEMBL document CHEMBL4373746, “Structural attributes influencing unbound tissue distribution” (Eur J Med Chem, 2020).

One may read the fraction unbound as free concentration divided by total concentration. Higher therefore signals much free substance. As usually defined, the Papp is the rate of passage across a membrane or cell layer, normalised by area and donor concentration.

Series [1] can be described thus: Unbound tissue partition coefficient, ratio of drug level in brain to plasma in Wistar Han rat at 1 to 2 mg/kg, iv infused for 10 to 20 hrs by LC-MS/MS analysis. Particulars: brain/plasma.
Series [2] can be described thus: Fraction unbound in Wistar Han rat heart at 2 uM incubated for 6 hrs by equilibrium dialysis method. A general note: Equilibrium dialysis compares concentrations on both sides of a semipermeable membrane.
The nature of series [3]: Fraction unbound in Wistar Han rat skeletal muscle at 2 uM incubated for 6 hrs by equilibrium dialysis method.
Series [4] can be described thus: Total plasma concentration in Wistar Han rat at 1 to 2 mg/kg, iv infused for 10 to 20 hrs by LC-MS/MS analysis. Particulars: in vivo.
A short description of series [5]: Unbound tissue partition coefficient, ratio of drug level in adipose to plasma in Wistar Han rat at 1 to 2 mg/kg, iv infused for 10 to 20 hrs by LC-MS/MS analysis. Particulars: adipose/plasma.
A short description of series [6]: Apparent permeability of the compound across dog RRCK cells by MDCK-LE assay.
Series [7] in a line: Unbound tissue partition coefficient, ratio of drug level in liver to plasma in Wistar Han rat at 1 to 2 mg/kg, iv infused for 10 to 20 hrs by LC-MS/MS analysis. Particulars: liver/plasma.
A short description of series [8]: Fraction unbound in Wistar Han rat brain at 2 uM incubated for 6 hrs by equilibrium dialysis method.
A short description of series [9]: Fraction unbound in Wistar Han rat liver at 2 uM incubated for 6 hrs by equilibrium dialysis method.
Series [10] in a line: Unbound tissue partition coefficient, ratio of drug level in heart to plasma in Wistar Han rat at 1 to 2 mg/kg, iv infused for 10 to 20 hrs by LC-MS/MS analysis. The following applies: heart/plasma.
A short description of series [11]: Fraction unbound in Wistar Han rat white adipose tissue at 2 uM incubated for 6 hrs by equilibrium dialysis method.
A short description of series [12]: Drug concentration in total brain in Wistar Han rat at 1 to 2 mg/kg, iv infused for 10 to 20 hrs by LC-MS/MS analysis. The following applies: in vivo.
Series [13] can be described thus: Drug concentration in total liver in Wistar Han rat at 1 to 2 mg/kg, iv infused for 10 to 20 hrs by LC-MS/MS analysis. The following applies: in vivo.
Series [14] can be described thus: Fraction unbound in Wistar Han rat plasma at 2 uM incubated for 6 hrs by equilibrium dialysis method.
Series [15] can be described thus: Drug concentration in total heart in Wistar Han rat at 1 to 2 mg/kg, iv infused for 10 to 20 hrs by LC-MS/MS analysis. Particulars: in vivo.
Series [16] is described as follows: Drug concentration in total skeletal muscle in Wistar Han rat at 1 to 2 mg/kg, iv infused for 10 to 20 hrs by LC-MS/MS analysis. The following applies: in vivo.
Series [17] in a line: Drug concentration in total white adipose tissue in Wistar Han rat at 1 to 2 mg/kg, iv infused for 10 to 20 hrs by LC-MS/MS analysis. Particulars: in vivo.
A short description of series [18]: Unbound tissue partition coefficient, ratio of drug level in skeletal muscle to plasma in Wistar Han rat at 1 to 2 mg/kg, iv infused for 10 to 20 hrs by LC-MS/MS analysis. Particulars: skeletal muscle/plasma.

As for `COc1ccc(Cc2cc([C@@H]3OC4(COC4)[C@@H](O)[C@H](O)[C@H]3O)ccc2C)cc1`, the Kp uu in series [1] was found to be 0.048; in [5] it was 0.16; in series [7], 2.7; in series [10] it was 1.2; in [18], 0.71. Moreover, the fraction unbound at 6 h, 2 µM was 0.076 in series [2]; 0.114 in series [3]; 0.0553 in series [8]; 0.125 in series [9]; 0.132 in series [11]; 0.212 in series [14]. This compound displayed a Cp in [4] of 81 ng/mL. Also, the Papp in series [6] came to 5.8 ×10⁻⁶ cm/s. Moreover, the Ct in series [12] came to 15 ng/mL; in series [13], 360 ng/mL; in [15], 260 ng/mL; in series [16] it was 110 ng/mL; in series [17], 20 ng/mL.
With `COc1ccc(-c2cc3c(S(=O)(=O)O)c[nH]c3cc2Cl)cc1`, the Kp uu is 0.13 in series [1]; 3.8 in series [5]; 8.7 in [7]; 2.9 in series [10]; 0.6 in series [18]. The fraction unbound at 6 h, 2 µM in [2] stood at 0.0523; in [3], 0.0546; in series [8] it was 0.0414; in series [9], 0.0303; in [11], 0.347; in series [14] it was 0.00473. In addition, the Cp in series [4] came to 330 ng/mL. Also, the Papp in [6] was 2.3 ×10⁻⁶ cm/s. For the same compound, the Ct in [12] was 4.2 ng/mL; in series [13], 380 ng/mL; in series [15], 82 ng/mL; in [16], 16 ng/mL; in [17] it was 15 ng/mL.
Consider `C[C@H]1COCCN1c1nc(-c2cnc(N)nc2)c2c(n1)N([C@@]1(C)CCN(C(=O)C(C)(C)N)C1)CC2`, for which the Kp uu in series [1] turned out to be 0.065; in series [5] it was 6.9; in series [7] it was 3.6; in series [10], 18; in series [18], 3.5. Also, the fraction unbound at 6 h, 2 µM in series [2] was 0.0824; in [3], 0.16; in series [8], 0.0654; in series [9], 0.146; in [11], 0.281; in series [14], 0.438. In [4], this compound had a Cp of 4.5 ng/mL. In addition, the apparent permeability coefficient (Papp) in [6] was found to be 5.1 ×10⁻⁶ cm/s. Also, the Ct was determined as 2 ng/mL in series [12]; 46 ng/mL in series [13]; 400 ng/mL in series [15]; 38 ng/mL in [16]; 45 ng/mL in [17].
For `Oc1noc2cc(Cl)c(Cl)cc12`, the Kp uu in series [1] is 1.1; in series [5], 9.7; in series [7], 0.22; in series [10], 10; in series [18], 1.2. Further, the fraction unbound at 6 h, 2 µM is 0.13 in [2]; 0.153 in series [3]; 0.103 in series [8]; 0.105 in series [9]; 0.714 in series [11]; 0.00445 in series [14]. The compound further had a Cp in series [4] of 500 ng/mL. In series [6], the Papp came out at 29 ×10⁻⁶ cm/s. Also, the Ct in series [12] amounted to 24 ng/mL; in [13], 4.7 ng/mL; in [15], 180 ng/mL; in series [16], 17 ng/mL; in [17], 29 ng/mL.
On to `Cc1ccc(NC(=O)N2CCN(Cc3sc4ccccc4c3C)CC2)nc1`, for which the Kp uu was determined as 2.5 in series [1]; 4.8 in [5]; 31 in series [7]; 1.9 in series [10]; 0.65 in series [18]. Further, the fraction unbound at 6 h, 2 µM was 0.00576 in [2]; 0.0067 in [3]; 0.0099 in series [8]; 0.0191 in [9]; 0.00709 in series [11]; 0.0044 in [14]. This compound also showed a Cp in series [4] of 92 ng/mL. Further, the Papp in series [6] was determined as 25 ×10⁻⁶ cm/s. Further, the Ct in series [12] came to 91 ng/mL; in series [13] it was 630 ng/mL; in series [15], 130 ng/mL; in series [16], 37 ng/mL; in series [17], 240 ng/mL.
In the case of `O=C(NC(c1ccccc1)c1ccccc1)C1CC1`, the Kp uu in [1] stood at 3.2; in series [5], 3.9; in series [7], 5.4; in series [10] it was 4.7; in [18] it was 0.68. Also, the fraction unbound at 6 h, 2 µM in series [2] stood at 0.1; in series [3], 0.0833; in [8], 0.079; in [9], 0.12; in series [11], 0.0208; in series [14] it was 0.0667. In [4], the Cp was found to be 79 ng/mL. The Papp in series [6] was determined as 35 ×10⁻⁶ cm/s. In addition, the Ct stood at 200 ng/mL in [12]; 230 ng/mL in series [13]; 230 ng/mL in series [15]; 40 ng/mL in series [16]; 880 ng/mL in series [17].
Take `C[C@H]1c2cccc(CCC(C)(C)O)c2C[C@H](CO)N1C(=O)Cc1c(Cl)cccc1Cl`: the Kp uu was determined as 0.35 in series [1]; 4.9 in series [5]; 9.8 in series [7]; 2.3 in series [10]; 1.3 in series [18]. For the same compound, the fraction unbound at 6 h, 2 µM came out at 0.016 in series [2]; 0.0161 in series [3]; 0.0113 in series [8]; 0.0158 in [9]; 0.0547 in series [11]; 0.012 in series [14]. The compound further registered a Cp in series [4] of 150 ng/mL. In addition, the Papp in series [6] was 27 ×10⁻⁶ cm/s. Besides, the Ct came out at 39 ng/mL in series [12]; 690 ng/mL in series [13]; 190 ng/mL in series [15]; 95 ng/mL in [16]; 110 ng/mL in series [17].
On to `CCCC(Oc1ccc(-n2cc3ccccc3n2)cc1)c1ccc(C(=O)NCCC(=O)O)cc1` (stereo not given), for which the Kp uu in series [1] was determined as 0.018; in series [5], 0.024; in series [7] it was 14; in [10], 1.8; in series [18], 0.38. Moreover, the fraction unbound at 6 h, 2 µM came out at 0.00543 in series [2]; 0.00584 in series [3]; 0.00341 in [8]; 0.00607 in series [9]; 0.105 in series [11]; 0.0034 in [14]. Besides, the Cp in series [4] was 68 ng/mL. For the same compound, the Papp in series [6] was found to be 9.9 ×10⁻⁶ cm/s. The Ct in series [12] was determined as 1.9 ng/mL; in series [13], 420 ng/mL; in series [15], 80 ng/mL; in [16], 12 ng/mL; in [17], 0.77 ng/mL.
Regarding `Cn1ncc(-c2ccc(C(=O)N(c3ncccc3Cl)[C@@H]3CCCNC3)cc2)c1C(=O)O`, the Kp uu in series [1] stood at 0.16; in [5] it was 0.21; in series [7] it was 5; in series [10], 5.3; in [18], 0.1. For the same compound, the fraction unbound at 6 h, 2 µM in series [2] is 1; in series [3], 0.595; in series [8] it was 1; in [9], 0.287; in series [11] it was 0.736; in [14], 0.692. The Cp in series [4] amounted to 55 ng/mL. In addition, in series [6], the Papp came out at 0.51 ×10⁻⁶ cm/s. Further, the Ct in [12] was 6.8 ng/mL; in [13] it was 630 ng/mL; in series [15] it was 210 ng/mL; in series [16], 7.4 ng/mL; in series [17], 5.4 ng/mL.
Consider `CCCn1cnc(C[C@H](CCCN)C(=O)O)c1` [UK-396,082], for which the Kp uu in series [1] was determined as 0.19; in [5], 0.14; in series [7], 0.63; in series [10], 0.39; in series [18], 0.99. The fraction unbound at 6 h, 2 µM stood at 0.237 in series [2]; 0.676 in series [3]; 0.239 in series [8]; 0.237 in [9]; 0.541 in [11]; 0.686 in [14]. Moreover, the Cp in series [4] is 160 ng/mL. Besides, the Papp in series [6] was found to be 0.27 ×10⁻⁶ cm/s. Also, the Ct came to 87 ng/mL in series [12]; 290 ng/mL in series [13]; 190 ng/mL in series [15]; 160 ng/mL in [16]; 30 ng/mL in series [17].
